Test results: US7319000B1, “Compositions and methods for eliciting immune or anti-infective responses” (priority 1992, dated 2008)

What was measured:
BALB/c mice = assay: Anti-peptide antibody response (ELISA) in BALB/c mice immunized with peptide multimers; format: in vivo; set-up: key to Antipeptide Antibody Reactivity to Analogous Peptide: −: cpm values are corrected and categorized according to unrelated antigen response in vitro.; •: Not determined.; +: cpm values are corrected and categorized according to unrelated antigen response in vitro.; ++: cpm values are corrected and categorized according to unrelated antigen response in vitro.; +++: cpm values are corrected and categorized according to unrelated antigen response in vitro.; ++++: cpm values are corrected and categorized according to unrelated antigen response in vitro; conditions: for Antipeptide Antibody Reactivity to Analogous Peptide: antibody raised in Balb/C mice, ELISA end point; for anti-peptide antibody response (in words): high molecular weight forms of the peptides; for anti-peptide antibody production (in words): disulfide (di-Cys) polymeric form
[1] = test system: PLN cells from A SW × Balb/c F1 mice; assay: In vitro proliferation (3H-TdR) of PLN cells from immunized A.SW x BALB/c F1 mice; format: in vivo, A.SWXBALB/C F1 mice; set-up: key: −: cpm values are corrected and categorized according to unrelated antigen response in vitro.; •: Not determined.; +: cpm values are corrected and categorized according to unrelated antigen response in vitro.; ++: cpm values are corrected and categorized according to unrelated antigen response in vitro.; +++: cpm values are corrected and categorized according to unrelated antigen response in vitro.; ++++: cpm values are corrected and categorized according to unrelated antigen response in vitro; conditions: for In Vitro Proliferation of PLN Cells from A SW × Balb/c F1, GP 160: in vitro antigen: GP 160; for In Vitro Proliferation of PLN Cells from A SW × Balb/c F1, Analogous Peptide: in vitro antigen: analogous peptide
[2] = test system: PLN cells from B6C3F1 mice; assay: In vitro proliferation (3H-TdR) of PLN cells from immunized B6C3 F1 mice; format: in vivo; set-up: key to In Vitro Proliferation of PLN Cells from B6C3F1, Analogous Peptide / In Vitro Proliferation of PLN Cells from B6C3F1, GP 160: −: cpm values are corrected and categorized according to unrelated antigen response in vitro.; •: Not determined.; +: cpm values are corrected and categorized according to unrelated antigen response in vitro.; ++: cpm values are corrected and categorized according to unrelated antigen response in vitro.; +++: cpm values are corrected and categorized according to unrelated antigen response in vitro.; ++++: cpm values are corrected and categorized according to unrelated antigen response in vitro; conditions: for In Vitro Proliferation of PLN Cells from B6C3F1, GP 160: in vitro antigen: GP 160; for In Vitro Proliferation of PLN Cells from B6C3F1, Analogous Peptide: in vitro antigen: analogous peptide; for T cell response against the corresponding peptide and native HIV envelope protein gp160 (in words): disulfide (di-Cys) polymeric form
[3] = test system: PBMCs of immunized rhesus monkeys; assay: PBMC proliferation in rhesus monkeys immunized with a mixture of eight synthetic peptides; format: in vivo; set-up: key to T-cell Proliferation Responses: —: no detectable response; 1+: poor response; 2+: good response; 3+: better response; 4+: best response; 6+: best response; conditions: for T-cell Proliferation Responses: PBMC response to the individual peptide or gp160; for PBMC proliferative responses (in words): three rhesus monkeys, monitored for 32 weeks
Protocol: In the present studies, three rhesus monkeys (#7, #23 and #283C) were immunized subcutaneously with 1 ml (0.1 ml/site) of a mixture of eight synthetic peptides (300·g of each peptide in sterile water) emulsified in complete Freund's adjuvant at 1:1 ratio. […] At 3 and 7 weeks after the primary immunization, two booster injections of the peptide mixture (150·g of each peptide in sterile water) emulsified in incomplete Freund's adjuvant were given to each monkey. Monkey #7 was terminated after […], for health reasons unrelated to the study, while the remaining two monkeys (#283C and #23) received one additional booster injection at 25 weeks.
At two week intervals following the first immunization of each animal, 15 ml of whole heparinized blood was collected by venous puncture. The peripheral blood mononuclear cells (PBMC) were separated by standard ficoll-hypaque centrifugation and employed in proliferation assays. The PBMCs were monitored every two weeks for a period of 32 weeks for proliferative responses against individual peptides and recombinant gp160.

| Sequence | Antipeptide Antibody Reactivity to Analogous Peptide (BALB/c mice) | anti-peptide antibody response (in words) (BALB/c mice) | In Vitro Proliferation of PLN Cells from A SW × Balb/c F1, GP 160 [1] | In Vitro Proliferation of PLN Cells from A SW × Balb/c F1, Analogous Peptide [1] | In Vitro Proliferation of PLN Cells from B6C3F1, GP 160 [2] | In Vitro Proliferation of PLN Cells from B6C3F1, Analogous Peptide [2] | T-cell Proliferation Responses ([3]; Rhesus Monkey #7) | T-cell Proliferation Responses ([3]; Rhesus Monkey #23) | T-cell Proliferation Responses ([3]; Rhesus Monkey #283C) | PBMC proliferative responses (in words) [3] | anti-peptide antibody production (in words) (BALB/c mice) | T cell response against the corresponding peptide and native HIV envelope protein gp160 (in words) [2] |
| --- | --- | --- | --- | --- | --- | --- | --- | --- | --- | --- | --- | --- |
| AHKVWATHACV [Peptide 106] | ++ | high antibody titers | + | ++++ | + | +++ |  |  |  |  |  |  |
| CRIKQIINMWQGVGKAMYA [Peptide 65, gp160 aa 417-435; polymeric form of the T-helper cell peptide] | ++ | high antibody titers | ++ | ++++ | + | ++ |  |  |  |  |  |  |
| CVPTNPVPQEVV [Peptide 107] | + | high antibody titers | + | + | ++ | ++ |  |  |  |  |  |  |
| EQMHEDIISLWDQ [Peptide 110] | ++++ | high antibody titers | + | ++ | − | ++ |  |  |  |  |  |  |
| FEPIPIHYCAFPGF [Peptide 114] | ++++ | high antibody titers | + | ++ | − | ++ |  |  |  |  |  |  |
| FLGFLGAAGSTMGAASLTLTVQANQ [Peptide 63, gp160 aa 519-543] | • | very low to negligible amounts of anti-peptide antibodies | ++ | ++ | ++ | ++ | 2+ | 4+ | 3+ | good proliferative responses | do not stimulate anti-peptide antibody production | strong T cell response |
| GTGPCTNVSTVQC [Peptide 116] | − | very low to negligible amounts of anti-peptide antibodies |  |  | − | ++ | 1+ | 3+ | 2+ | weak responses |  |  |
| GVPVWKEATTLFC [Peptide 105] | • | high antibody titers | − | + | +++ | ++++ |  |  |  | A significant response was not detected |  |  |
| KKFNGTGPCTN [Peptide 115] | ++ | high antibody titers |  |  | + | ++ |  |  |  |  |  |  |
| LWDQSLKPCVKLT [Peptide 111] | − | very low to negligible amounts of anti-peptide antibodies | − | • | ++ | + | 3+ | 2+ | 3+ | good proliferative responses |  |  |
| NNMVEQMHEDI [Peptide 109] | +++ | high antibody titers | + | • | • | ++ |  |  |  |  |  |  |
| SLKPCVKLTPLC [Peptide 112] | + | high antibody titers | + | + | + | + |  |  |  |  |  |  |
| SVITQACSKVSFE [Peptide 113] | − | very low to negligible amounts of anti-peptide antibodies | + | ++ | + | ++ | 1+ | 2+ | 2+ | weak responses | do not stimulate anti-peptide antibody production | strong T cell response |
| VLENVTENFNM [Peptide 108] | + | high antibody titers | − | + | + | + |  |  |  |  |  |  |
| VQCTHGIRPVVSTQ [Peptide 117] | ++++ | high antibody titers |  |  | − | +++ |  |  |  |  |  |  |
| VYYGVPVWKEA [Peptide 104] | • | very low to negligible amounts of anti-peptide antibodies | + | +++ | ++ | ++++ | 4+ | 2+ | 4+ | good proliferative responses |  |  |
